Measured values reported in PubChem BioAssay (NCI).
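A five-concentration, 48-hour dose response in 96-well plates underlies each endpoint, interpolated linearly between surrounding concentrations. TGI is the concentration that stops growth completely.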

Tests used:
Assay in all cases: inhibition of tumour cell growth, NCI panel, 48 h
A498 renal = system: A498 renal
DU-145 prostate = system: DU-145 prostate
EKVX NSCLC = system: EKVX NSCLC
HL-60(TB) leukemia = system: HL-60(TB) leukemia
HS 578T breast = system: HS 578T breast
OVCAR-3 ovarian = system: OVCAR-3 ovarian
SF-539 CNS = system: SF-539 CNS
SNB-19 CNS = system: SNB-19 CNS
SW-620 colon = system: SW-620 colon
UACC-257 melanoma = system: UACC-257 melanoma

Row | Structure (SMILES) | TGI (A498 renal) [µM] | TGI (DU-145 prostate) [µM] | TGI (EKVX NSCLC) [µM] | TGI (HL-60(TB) leukemia) [µM] | TGI (HS 578T breast) [µM] | TGI (OVCAR-3 ovarian) [µM] | TGI (SF-539 CNS) [µM] | TGI (SNB-19 CNS) [µM] | TGI (SW-620 colon) [µM] | TGI (UACC-257 melanoma) [µM]
1 | O=C(O)c1c(CC(Cc2ccc3c(c2)CCCC3)C(=O)O)ccc2c1CCCC2 (stereo unspecified) | > 100 | > 100 | > 100 | > 100 | > 100 | > 100 | > 100 | > 100 | > 100 | > 100
2 | COc1cccc(NCC(=O)Nn2c(-c3ccccc3)nc3ccccc3c2=O)c1 | 85 | > 100 | > 100 | > 100 | > 100 | > 100 | > 100 | > 100 | > 100 | > 100
3 | Oc1cc(Cl)cc2cc(Br)cnc12 | > 88.7 | > 100 | > 64.2 | 1.37 | > 100 | 7.9 | > 100 | > 100 | > 100 | > 23.9
4 | N#Cc1c(=O)c2cc([N+](=O)[O-])ccc2n2c1[nH]c1ccccc12 | > 93.1 | > 100 | > 100 | > 100 | > 74.9 | > 55.7 | > 100 | > 72.9 | > 100 | > 72
5 | CC(C)CCCC(C)[C@H]1CC[C@H]2[C@@H]3CC[C@H]4C[C@@H](CCC=C(c5cc(Cl)c(O)c(C(=O)OC(C)(C)C)c5)c5cc(Cl)c(O)c(C(=O)OC(C)(C)C)c5)CC[C@]4(C)[C@H]3CC[C@]12C (stereo partly specified) | > 50 | > 50 | > 50 | > 50 | > 50 | > 50 | > 50 | > 50 | > 50 | –
6 | Clc1ccc(OCc2nnc3sc(-c4ccc(-c5ccc(Cl)cc5Cl)o4)nn23)c(Cl)c1 | 33.4 | 66.8 | 34.5 | 96.6 | 54.5 | 34 | 32.2 | 56.6 | > 100 | 38.2
7 | C=C1CC/C=C(/C(=O)O)CC[C@H]2[C@@H]1CC2(C)C | > 100 | > 100 | > 100 | > 100 | > 100 | > 100 | > 100 | > 100 | > 100 | > 100
8 | Oc1ccc2c(c1)OCC(O)(c1ccccc1O)C2 (stereo unspecified) | > 100 | > 100 | > 100 | > 100 | > 100 | > 100 | > 100 | > 100 | > 100 | > 100
9 | C#CC(O)/C=C/CCCCCCC#CC/C=C\CC#CCCCCCC/C=C/C(O)C#C (stereo unspecified) | 9.06 | 8.99 | 5.23 | 3.86 | 15 | 7.99 | 41.2 | 24.8 | 7.3 | 8.57
10 | CCOC(OCC)C(CC)[Se]c1ccccc1[N+](=O)[O-] (stereo unspecified) | 11.6 | > 100 | > 100 | 3.22 | > 100 | 6.56 | 5.61 | > 94.5 | > 100 | > 94.6
11 | COc1ccc(CNc2nc(NCc3ccc(OC)cc3)nc(Nc3ccccc3)n2)cc1 | > 100 | > 100 | > 100 | > 100 | > 100 | 6.94 | > 100 | > 100 | > 100 | > 100
12 | CCCCCCOc1ccc(NC2=C(Cl)C(=O)c3cccnc3C2=O)cc1 | > 10 | 2.9 | 3.22 | 3.78 | > 10 | 2.85 | 4.19 | > 10 | 3.88 | 5.21
13 | CC(C)(C)NC(NC(C)(C)C)=C(C(Cl)=C(Cl)Cl)[N+](=O)[O-] | > 100 | > 100 | > 100 | > 100 | > 100 | > 100 | > 100 | > 100 | > 100 | > 100
14 | CC(=O)Oc1ccn2nc(C)c(Br)c2c1Br | 72.9 | > 100 | > 58.5 | > 66.5 | > 100 | 33.4 | 45.7 | > 100 | > 73.6 | 32.2
15 | C/C(Cl)=N\OC(=O)Nc1ccccc1C(F)(F)F | > 100 | > 100 | 57.6 | 15.5 | > 100 | 29.2 | > 100 | > 100 | 36.1 | > 100
16 | COc1nn(Cc2ccccc2F)c2ccc([N+](=O)[O-])cc12 | > 92.3 | > 100 | > 100 | > 100 | > 100 | > 100 | > 100 | > 100 | > 100 | > 100
17 | C=C1C(=O)OC2/C=C(\C)C(O)CC(O)C(C)(O)CC(OC(=O)/C(C)=C/C)C12 (stereo unspecified) | > 84.3 | > 100 | > 100 | > 82.8 | > 100 | > 100 | > 100 | > 100 | > 100 | > 100

Row | Structure (SMILES) | TGI (A498 renal) [µM] | TGI (DU-145 prostate) [µM] | TGI (EKVX NSCLC) [µM] | TGI (HL-60(TB) leukemia) [µM] | TGI (HS 578T breast) [µM] | TGI (OVCAR-3 ovarian) [µM] | TGI (SF-539 CNS) [µM] | TGI (SNB-19 CNS) [µM] | TGI (SW-620 colon) [µM] | TGI (UACC-257 melanoma) [µM]
18 | C[n+]1c2ccccc2c(CNC(CCC(N)=O)C(=O)O)c2ccccc21 (stereo unspecified) | 6.93 | 11.4 | 12.9 | 7.65 | 21.8 | 6.78 | 5.61 | 16.3 | 1.95 | 12.9
19 | O=C(O)c1c(-c2c3ccc(=O)cc-3oc3cc(O)ccc23)cc2ccccc2c1-c1ccccc1 | > 100 | > 100 | > 100 | > 100 | > 100 | > 100 | > 100 | > 100 | > 100 | > 100
20 | N[C@@H]1c2c(Br)sc(Br)c2[C@H](O)[C@@H]1O | > 100 | > 100 | > 100 | > 100 | > 100 | > 100 | > 100 | > 100 | > 100 | > 100
21 | O=[N+]([O-])CC(SCc1ccccc1)c1ccc2c(c1)OCO2 (stereo unspecified) | 18.8 | 30 | 39.5 | 3.68 | 18.2 | 18.3 | 10.9 | 28 | 15.4 | 16
22 | O=C1CC(Br)c2c(Cl)sc(Cl)c21 (stereo unspecified) | 38.4 | 31.3 | 48.2 | 6.9 | 47 | 6.32 | > 100 | 37.8 | 5.43 | 15
23 | COC(=O)C1=NN2c3ccccc3C(=O)OCCC2C1 (stereo unspecified) | > 100 | > 100 | > 100 | > 100 | > 100 | > 100 | > 100 | – | > 100 | > 100
24 | Cc1ccc(S(=O)(=O)N2CCSCCSCCN(S(=O)(=O)c3ccc(C)cc3)CCN(S(=O)(=O)c3ccc(C)cc3)CC2)cc1 | > 100 | > 100 | > 100 | > 100 | > 100 | > 100 | > 100 | > 100 | > 100 | > 100
25 | C=C(C)CCC1CCCCC(CN(C)C)C1=O (stereo unspecified) | > 100 | > 100 | > 100 | > 100 | > 100 | > 100 | > 100 | > 100 | > 100 | > 100
26 | C=CCN1C(=O)/C(=C/c2ccc(C)cc2)N=C1SC/C=C/C | 84.9 | > 100 | > 100 | 47.9 | > 100 | > 100 | > 100 | > 100 | > 100 | > 100
27 | O=C1Oc2ccccc2C(=O)/C1=C/N1C(=O)/C(=C/c2ccc([N+](=O)[O-])cc2)SC1=S | 27.6 | > 100 | > 100 | > 100 | 34.3 | 5.85 | 45 | 79.1 | > 100 | 90.7
28 | Cc1cc(C)c2c(n1)S(=O)(=O)N(CCCN1CCN(c3cccc(C(F)(F)F)c3)CC1)/C(=C(\O)c1ccccc1)C2=O | > 100 | > 100 | 37.6 | 8.97 | > 100 | 18.1 | 98.7 | > 100 | 29.3 | 32.4
29 | NC1CC2C3CCC2C1C3=O (stereo unspecified) | > 100 | > 100 | > 100 | > 100 | > 100 | > 100 | > 100 | > 100 | > 100 | > 100
30 | N=c1c2c3n(c4c(=O)n(-c5ccccc5)c(=S)n(c(=O)n1-c1ccccc1)c24)CCCCC3 | > 100 | > 100 | > 100 | > 100 | > 100 | > 100 | > 100 | > 100 | > 100 | > 100
31 | COc1cc(/C=C2\N=C(c3ccccc3)N(C3Nc4cc5c(cc4S3)NC(N3C(=O)/C(=C/c4cc(OC)c(OC)c(OC)c4)N=C3c3ccccc3)S5)C2=O)cc(OC)c1OC (stereo unspecified) | > 100 | > 100 | > 100 | > 100 | > 100 | > 100 | > 100 | – | > 100 | > 100
32 | CCOC(=O)CCC(C(=O)OCC)n1nc2ccc(Nc3c(C)[n+]([O-])c4cc(Cl)ccc4[n+]3[O-])cc2n1 (stereo unspecified) | > 100 | > 100 | > 100 | > 100 | > 100 | > 100 | > 100 | > 100 | > 100 | > 100
33 | CO/N=C1\CCC2(O)C3Cc4ccc(O)c5c4C2(CCN3CC2CC2)[C@H]1O5 (stereo partly specified) | > 100 | > 100 | > 100 | > 100 | > 100 | > 100 | > 100 | > 100 | > 100 | –
34 | COc1ccc(-c2cc(-c3ccc(Nc4ccnc5cc(C(F)(F)F)ccc45)cc3)[nH]c(=O)c2C#N)c2ccccc12 | > 58.4 | > 83.7 | > 100 | > 100 | > 100 | > 100 | > 53.7 | > 54.7 | > 100 | > 100
